Reference: patent publication US10759787B2, “Benzofuran derivative, preparation method thereof and use thereof in medicine” (Jiangsu Hengrui Medicine Co., Ltd., priority 2015, dated 2020)

Columns and labels:
Pfeiffer cells = assay: In vitro anti-tumor cell growth assay (CellTiter-Glo), Pfeiffer; type: cell-based; details: Homo sapiens, 120 h; Pfeiffer cells (A677G mutant), 5 days; read-out: IC50 for inhibiting the growth activity of tumor cells (Pfeiffer) in vitro
Protocol: (§1) Test Example 2. Assay for Determining In Vitro Anti-Tumor Cell Growth Activity of the Example Compounds of the Present Invention
(§2) This method was used to determinate the inhibitory effect of the compounds of the present invention on the growth activity of tumor cells (Pfeiffer or WSU-DLCL2) in vitro. Pfeiffer cells carry A677G mutant, and WSU-DLCL2 cells carry Y641F mutant.
(§3) The lymphoma suspension cell line (Pfeiffer or WSU-DLCL2) was cultured in a RPMI-1640 medium containing 10% inactivated Fetal Bovine Serum, 100 U/mL penicillin, and 100 μg/mL streptomycin, and incubated in an incubator with 5% carbon dioxide at 37° C. under a saturated humidity condition, and passaged every 3-4 days.
(§4) A cell sudpension was prepared with a fresh cell medium, added to a 96-well cell culture plate at 8000 cells/well (Pfeiffer) or 2000 cells/well (WSU-DLCL2), and incubated in 5% carbon dioxide at 37° C. incubator overnight. On the day of the experiment, the EZH2 test compounds (final concentration: 20000, 2000, 200, 20, 2, 0.2 nM) were added into the experimental wells for 3 parallel wells per group. A control well with the medium alone but without cells was set up to obtain the background luminescent value. The cell culture plate was incubated in an incubator with 5% carbon dioxide at 37° C. for 5 days.
(§5) After the compounds were applied to the cells for 5 days, the cell culture plate was placed at room temperature for 30 minutes, then a CellTiter-Glo reagent equal to the volume of cell culture medium was added to each well. The contents were mixed on a shaker for 10 minutes, and the […] signal values were recorded. The cell growth inhibition rate was calculated, and the formula was: cell growth inhibiton rate=[(negative control control−experimental group)/(negative control group−background luminescent value)]×100%. The IC50 values (half inhibition rate IC50, i.e., a drug concentration that is required for 50% cell growth inhibition rate) were calculated by software from the cell growth inhibiton rate and the corresponding concentration.

WSU-DLCL2 cells = assay: In vitro anti-tumor cell growth assay (CellTiter-Glo), WSU-DLCL2; type: cell-based; details: Homo sapiens, WSUDLCL2, 120 h; WSU-DLCL2 cells (Y641F mutant), 5 days; read-out: IC50 for inhibiting the growth activity of tumor cells (WSU-DLCL2) in vitro
Protocol: as §1, §2, §3, §4, §5

[1] = Pharmacokinetics assay in SD rats after intragastrical administration; type: in vivo; details: both sexes, Sprague-Dawley, rat, plasma, po, 5 mg/kg; for Vd/F: read-out: Apparent Distribution Volume Vz/F; for AUC: read-out: Area Under Curve AUC; for CL/F: read-out: Clearance CL/F; for half-life: read-out: Half-Life t1/2 (converted); for MRT: read-out: Mean Residence Time MRT; for Cmax: read-out: Plasma Conc. Cmax
Protocol: Test Example 3. Pharmacokinetics Assay of the Compounds of Examples 1, 2, 3 and 9 of the Present Invention
SD rats were used as test animals. The drug concentration in plasma at different time points was determined by LC/MS/MS after intragastrical administration of the compounds of Examples 1, 2, 3 and 9 to the rats. The pharmacokinetic behavior of the compounds of the present invention was studied and evaluated in rats.
16 healthy adult Sprague-Dawley (SD) rats, half male and half female, were purchased from SINO-BRITSH SIPPR/BK LAB. ANIMAL LTD., CO, with Certificate No.: SCXK (Shanghai) 2008-0016.
The appropriate amount of each compound was weighed, and added with 0.5% CMC-Na (containing 1% Tween 80) to prepare a 1.0 mg/mL suspension by grinding.
After an overnight fast, 16 SD rats were divided into 4 groups equally, half male and half female, and administered intragastrically the test compounds at an administration volume of 5 mL/kg.
Blood (0.2 mL) was taken from the orbital sinus before administration and at 0.5, 1.0, 2.0, 4.0, 6.0, 8.0, 11.0, and 24.0 hours after administration. The samples were stored in heparinized tubes, and centrifuged for 10 minutes at 3,500 rpm to separate the blood plasma. The plasma samples were stored at −20° C.
The plasma concentration of the test compounds in rat plasma after intragastric administration was determined by LC-MS/MS.
Pharmacokinetic parameters of the compounds of Examples 1, 2, 3 and 9 of the present invention are shown below: […]

EZH2-A677G = EZH2-A677G (Homo sapiens (Human), UniProt Q15910, A677G); assay: EZH2-A677G mutant enzyme activity assay (HTRF); type: biochemical; details: read-out: IC50 for inhibiting the activity of enzyme EZH2-A677G
Protocol: (§6) Histone H3 biotin labeling and S-adenosyl methionine were respectively diluted to 50 nM and 50 μM with a kinase buffer, then added to a 384-well plate at 4 μl/well. The test compound was diluted with a kinase buffer (it was diluted from the highest concentration 30 μM in 10 fold concentration gradient to 7 concentration points), then added to the 384-well microtiter plate at 4 μl/well. The plate was incubated at room temperature for 2 hours. Histone H3K27 Me3 monoclonal antibody and Streptavidin-XL665 were diluted to 30 nM and 500 nM by HTRF detection buffer, then added to the 384-well microplate at 10 µl/well and incubated for 1 hour. A well without an EZH2 enzyme and a compound was used as a negative control, and a well with an EZH2 enzyme but without a compound was used as a positive control. […] The compound logarithm concentration vs the inhibition percentage relative to the positive control well was plotted using GraphPad Prism, then the IC50 values were calculated.

EZH2-Y641F = EZH2-Y641F (Homo sapiens (Human), UniProt Q15910, Y641F); assay: EZH2-Y641F mutant enzyme activity assay (HTRF); type: biochemical; details: read-out: IC50 for inhibiting the activity of enzyme EZH2-Y641F
Protocol: as §6

EZH2-Y641F, sequence (Q15910 whole entry Y641F): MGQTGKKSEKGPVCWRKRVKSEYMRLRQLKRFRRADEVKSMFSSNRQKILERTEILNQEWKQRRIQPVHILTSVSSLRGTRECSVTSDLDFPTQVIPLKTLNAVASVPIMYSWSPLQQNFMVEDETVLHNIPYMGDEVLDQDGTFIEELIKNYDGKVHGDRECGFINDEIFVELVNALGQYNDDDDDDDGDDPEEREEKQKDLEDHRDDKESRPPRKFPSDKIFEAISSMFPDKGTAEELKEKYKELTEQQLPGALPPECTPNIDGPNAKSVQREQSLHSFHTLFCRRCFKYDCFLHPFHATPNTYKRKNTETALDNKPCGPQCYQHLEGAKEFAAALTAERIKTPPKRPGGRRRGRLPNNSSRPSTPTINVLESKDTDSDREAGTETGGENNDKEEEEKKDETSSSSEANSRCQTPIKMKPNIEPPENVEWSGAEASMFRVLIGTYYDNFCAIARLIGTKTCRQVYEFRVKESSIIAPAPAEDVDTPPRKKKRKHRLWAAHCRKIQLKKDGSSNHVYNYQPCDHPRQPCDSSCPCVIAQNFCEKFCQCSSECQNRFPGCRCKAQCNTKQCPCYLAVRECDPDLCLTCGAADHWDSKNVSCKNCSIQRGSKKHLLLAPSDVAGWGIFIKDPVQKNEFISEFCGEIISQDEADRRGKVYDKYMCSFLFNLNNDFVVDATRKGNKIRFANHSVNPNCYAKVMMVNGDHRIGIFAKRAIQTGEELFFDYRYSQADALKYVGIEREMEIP
EZH2-Y641F, sequence (O75530 whole entry partner): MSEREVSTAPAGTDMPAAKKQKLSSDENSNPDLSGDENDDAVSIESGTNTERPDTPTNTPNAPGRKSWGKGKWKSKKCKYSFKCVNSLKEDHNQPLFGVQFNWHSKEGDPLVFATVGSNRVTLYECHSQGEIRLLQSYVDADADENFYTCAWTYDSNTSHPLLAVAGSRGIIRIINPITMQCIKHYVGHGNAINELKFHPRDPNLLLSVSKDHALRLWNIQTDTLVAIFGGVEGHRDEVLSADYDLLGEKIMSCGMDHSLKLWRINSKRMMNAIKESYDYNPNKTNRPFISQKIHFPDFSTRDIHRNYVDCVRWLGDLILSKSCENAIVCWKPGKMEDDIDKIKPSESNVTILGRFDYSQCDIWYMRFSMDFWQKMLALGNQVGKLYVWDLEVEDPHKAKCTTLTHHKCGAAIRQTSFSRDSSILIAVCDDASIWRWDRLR
EZH2-Y641F, sequence (Q15022 whole entry partner): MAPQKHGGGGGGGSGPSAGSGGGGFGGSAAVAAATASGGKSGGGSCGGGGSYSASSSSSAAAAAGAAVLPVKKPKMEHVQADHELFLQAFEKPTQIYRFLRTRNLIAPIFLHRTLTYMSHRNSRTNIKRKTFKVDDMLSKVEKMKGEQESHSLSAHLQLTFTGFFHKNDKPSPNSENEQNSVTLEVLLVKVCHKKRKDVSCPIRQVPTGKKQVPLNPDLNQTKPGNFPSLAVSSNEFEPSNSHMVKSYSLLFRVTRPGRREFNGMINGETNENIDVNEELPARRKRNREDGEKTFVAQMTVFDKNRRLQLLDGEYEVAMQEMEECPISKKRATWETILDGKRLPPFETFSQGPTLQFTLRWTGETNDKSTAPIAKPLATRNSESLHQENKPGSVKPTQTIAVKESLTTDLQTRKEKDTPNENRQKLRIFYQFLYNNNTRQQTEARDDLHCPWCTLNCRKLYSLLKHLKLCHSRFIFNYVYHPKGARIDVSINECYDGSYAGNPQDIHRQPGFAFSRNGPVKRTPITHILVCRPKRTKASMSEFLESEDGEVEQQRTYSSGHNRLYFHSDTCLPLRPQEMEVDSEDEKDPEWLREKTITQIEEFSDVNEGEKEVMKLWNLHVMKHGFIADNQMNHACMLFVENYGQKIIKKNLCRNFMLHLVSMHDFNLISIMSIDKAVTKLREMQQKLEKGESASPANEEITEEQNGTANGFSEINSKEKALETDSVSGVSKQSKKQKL
EZH2-Y641F, sequence (Q09028 whole entry partner): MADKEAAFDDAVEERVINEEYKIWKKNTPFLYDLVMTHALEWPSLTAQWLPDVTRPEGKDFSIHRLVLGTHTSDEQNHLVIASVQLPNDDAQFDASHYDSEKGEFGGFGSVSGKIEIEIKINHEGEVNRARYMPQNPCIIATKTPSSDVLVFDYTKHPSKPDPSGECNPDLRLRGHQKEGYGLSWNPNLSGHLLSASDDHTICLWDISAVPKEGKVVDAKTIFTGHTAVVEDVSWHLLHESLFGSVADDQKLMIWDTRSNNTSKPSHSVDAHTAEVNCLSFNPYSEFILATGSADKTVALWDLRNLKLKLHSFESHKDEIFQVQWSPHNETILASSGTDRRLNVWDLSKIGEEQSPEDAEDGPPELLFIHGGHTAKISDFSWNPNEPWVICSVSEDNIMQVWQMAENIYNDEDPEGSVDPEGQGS
EZH2-Y641F, sequence (Q6ZN18 whole entry partner): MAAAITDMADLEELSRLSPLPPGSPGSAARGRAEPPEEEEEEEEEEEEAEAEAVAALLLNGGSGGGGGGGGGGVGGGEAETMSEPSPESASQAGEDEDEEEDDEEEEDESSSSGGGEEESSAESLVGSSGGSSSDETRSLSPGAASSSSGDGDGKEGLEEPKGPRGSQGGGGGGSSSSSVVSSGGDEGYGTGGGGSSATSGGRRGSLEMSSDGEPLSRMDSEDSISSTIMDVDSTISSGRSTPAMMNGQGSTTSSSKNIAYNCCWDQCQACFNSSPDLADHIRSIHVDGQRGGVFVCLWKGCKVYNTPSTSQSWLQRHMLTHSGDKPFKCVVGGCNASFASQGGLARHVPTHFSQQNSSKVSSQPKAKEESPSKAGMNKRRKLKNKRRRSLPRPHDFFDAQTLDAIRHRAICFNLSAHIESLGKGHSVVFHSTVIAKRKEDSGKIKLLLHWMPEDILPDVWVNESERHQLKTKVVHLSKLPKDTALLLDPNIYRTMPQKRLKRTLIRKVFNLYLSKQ
EZH2-A677G, sequence (Q15910 whole entry A677G): as the sequence (Q15910 whole entry Y641F) above, with F641Y, A677G counted along it
EZH2-A677G, sequence (O75530 whole entry partner): as the sequence (O75530 whole entry partner) above
EZH2-A677G, sequence (Q15022 whole entry partner): as the sequence (Q15022 whole entry partner) above
EZH2-A677G, sequence (Q09028 whole entry partner): as the sequence (Q09028 whole entry partner) above
EZH2-A677G, sequence (Q6ZN18 whole entry partner): as the sequence (Q6ZN18 whole entry partner) above

| Compound | IC50 (Pfeiffer cells) | IC50 (WSU-DLCL2 cells) | Vd/F [1] | AUC [1] | CL/F [1] | half-life [1] | MRT [1] | Cmax [1] | IC50 (EZH2-A677G) | IC50 (EZH2-Y641F) |
| --- | --- | --- | --- | --- | --- | --- | --- | --- | --- | --- |
| CCc1c(N(CC)C2CCOCC2)cc2oc(CN3CCCCC3)cc2c1C(=O)NCc1c(C)cc(C)[nH]c1=O [Example 2, N-((4,6-Dimethyl-2-oxo-1,2-dihydropyridin-3-yl)methyl)-5-ethyl-6-(ethyl(tetrahydro-2H-pyran-4-yl)amino)-2-(piperidin-1-ylmethyl)benzofuran-4-carboxamide] | 13 nM | 39 nM | 41.4 ± 7.91 L/kg | 378 ng·h/mL | 222 ± 23 mL/min/kg | 2.2 ± 0.68 h | 3.18 ± 0.3 h | 105 ± 44.5 ng/mL |  |  |
| CCc1c(N(CC)C2CCOCC2)cc2oc(C3CCN(C(C)C)CC3)cc2c1C(=O)NCc1c(C)cc(C)[nH]c1=O [Example 9, N-((4,6-Dimethyl-2-oxo-1,2-dihydropyridin-3-yl)methyl)-5-ethyl-6-(ethyl(tetrahydro-2H-pyran-4-yl)amino)-2-(1-isopropylpiperidin-4-yl)benzofuran-4-carboxamide] | 7 nM | 55 nM | 35.1 ± 37.1 L/kg | 274 ± 180 ng·h/mL | 562 ± 592 mL/min/kg | 0.719 ± 0.15 h | 3.48 ± 0.107 h | 79.1 ± 50.7 ng/mL | 5.7 nM | 4 nM |
| CCN(c1cc2occc2c(C(=O)NCc2c(OC)cc(C)[nH]c2=O)c1C)C1CCOCC1 [Example 18, 6-(Ethyl(tetrahydro-2H-pyran-4-yl)amino)-N-((4-methoxy-6-methyl-2-oxo-1,2-dihydropyridin-3-yl)methyl)-5-methylbenzofuran-4-carboxamide] | 20 nM | 113 nM |  |  |  |  |  |  | 4 nM | 2.3 nM |
| CCN(c1cc2oc(C)cc2c(C(=O)NCc2c(OC)cc(C)[nH]c2=O)c1C)C1CCOCC1 [Example 19, 6-(Ethyl(tetrahydro-2H-pyran-4-yl)amino)-N-((4-methoxy-6-methyl-2-oxo-1,2-dihydropyridin-3-yl)methyl)-2,5-dimethylbenzofuran-4-carboxamide] | 14 nM | 232 nM |  |  |  |  |  |  | 2.9 nM | 2.8 nM |
| CCN(c1cc2occc2c(C(=O)NCc2c(OC)cc(C)[nH]c2=O)c1C)[C@H]1CC[C@H](N(C)C)CC1 [Example 24, 6-(((1r,4r)-4-(Dimethylamino)cyclohexyl)(ethyl)amino)-N-((4-methoxy-6-methyl-2-oxo-1,2-dihydropyridin-3-yl)methyl)-5-methylbenzofuran-4-carboxamide] | 19 nM | 45 nM |  |  |  |  |  |  |  | 3.4 nM |
| CCN(c1cc2occc2c(C(=O)NCc2c(OC)cc(C)[nH]c2=O)c1C)C1CCN(S(C)(=O)=O)CC1 [Example 25, 6-(Ethyl(1-(methylsulfonyl)piperidin-4-yl)amino)-N-((4-methoxy-6-methyl-2-oxo-1,2-dihydropyridin-3-yl)methyl)-5-methylbenzofuran-4-carboxamide] | 15 nM | 160 nM |  |  |  |  |  |  | 0.9 nM | 3.2 nM |
| CCc1c(N(CC)C2CC(F)(F)C2)cc2occc2c1C(=O)NCc1c(OC)cc(C)[nH]c1=O [Example 32, 6-((3,3-Difluorocyclobutyl)(ethyl)amino)-5-ethyl-N-((4-methoxy-6-methyl-2-oxo-1,2-di hydropyridin-3-yl)methyl)benzofuran-4-carboxamide] | 18 nM | 190 nM |  |  |  |  |  |  | 4 nM |  |
| CCc1c(N(CC)C2CCS(=O)(=O)CC2)cc2occc2c1C(=O)NCc1c(OC)cc(C)[nH]c1=O [Example 33, 6-((1,1-Dioxidotetrahydro-2H-thiopyran-4-yl)(ethyl)amino)-5-ethyl-N-((4-methoxy-6-methyl-2-oxo-1,2-dihydropyridin-3-yl)methyl)benzofuran-4-carboxamide] | 22 nM |  |  |  |  |  |  |  | 2.7 nM | 0.8 nM |
